The text below walks through data of a melting point compilation (Tetko et al.; mined from patent text by program, amines drawn as free bases though some values may be those of a salt).

The structures appear in SMILES notation.

For orientation: melting point means the temperature, or range, at which the solid turns liquid. In turn, `COC(=O)C=CC(=O)NC(N)=O` returned a melting point of 112 to 114 °C.
As for `COC(=O)/C=C/c1cc([N+](=O)[O-])cn1C`, the figure is 146 to 147 °C.
As for `CC(=O)N1CCN(c2ccc(F)cc2O)CC1`, the figure is 183 to 185 °C.
The same measure for `Nc1ccc(OCc2nc3cc(F)ccc3s2)cc1`: 125 to 128 °C; for `CCOC(=O)NC(=N)c1ccc(-n2cc(C)n(-c3ccc(CCC(=O)OC)cc3)c2=O)cc1`: 198 to 199 °C; for `CS(=O)(=O)c1ccc(-c2nn3c(-c4ccccc4)c(-c4ccccc4)oc3c2-c2ccc(F)cc2)cc1`: 228 to 229 °C.
In turn, `CCOC(=O)Nc1nc(-c2ccccc2)c(-c2nc3ccccc3c(=O)n2-c2ccc(OC)cc2)s1` showed a melting point of 256 to 257 °C.
The compound `O=C(O)CCCCCCC=Cc1cccs1` had a melting point of 45 to 46 °C.
As for `Cc1c(F)c(N2CCN(C=O)C(C)C2)cc2c1c(=O)c(C=O)cn2C1CC1` (stereo unspecified), the figure is 258 to 260 °C.
In the case of `NC(=S)c1ncccc1O`, the melting point was 150 to 151 °C.
As for `COC(=O)C(C)(C)c1cn2nc(Cl)ccc2n1`, the figure is 92 to 93 °C; as for `CC(O)(CNc1ccc(S(=O)(=O)c2ccccc2)cc1)C(F)(F)F` (stereo unspecified), 145 to 146 °C.
As for `Oc1ccc(CN2CCCCC2)c2cccnc12`, the figure is 96 °C.
Take `CCCNS(=O)(=O)c1nc2ccc(OCC)cc2s1`: the melting point was in the range of 112 to 113 °C.
As for `CC(C)N=CN1c2ccccc2Cc2ccccc21`, the figure is 150 °C.
The compound `CN(C)c1cccc2c(S(=O)(=O)Nc3ccc([N+](=O)[O-])cn3)cccc12` returned a melting point of 196 °C.
As for `O=[N+]([O-])c1ccc(CN2CCC(c3cc(-c4ccc(Cl)cc4)[nH]n3)CC2)cc1`, the figure is 187 to 190 °C.
As for `CCC(CC)NC(=O)CCCOc1ccc2nc3[nH]c(=O)[nH]c3cc2c1`, the figure is 312 to 314 °C.
As for `O=C(O)C1=Cc2cc(-c3ccc(F)cc3)ccc2OC1C(F)(F)F` (stereo unspecified), the figure is 207 to 210 °C; as for `COc1cc(-c2ccc3c(c2)CC[C@H]2N(C)C(=O)CC[C@]32C)ccc1O`, 247 to 250 °C; as for `CC(C)c1ccc2c(c1)c(SC(C)(C)C)c(CC(C)(C)C(=O)O)n2Cc1ccc(Cl)cc1`, 189 to 192 °C.
`O=S(Cc1ccccn1)c1cnc2ccccc2n1` (stereo unspecified) showed a melting point of 117 to 122 °C.
As for `CC(C)(C(=O)O)c1ccc(OC(F)F)cc1`, the figure is 68.5 to 69.5 °C; as for `CC(=O)NCC(O)(Cn1cncn1)c1ccc(Cl)cc1Cl` (stereo unspecified), 178 to 179 °C; as for `Fc1cccc(Cl)c1-c1cc(Cl)n(-c2ccc(COc3ncc(C(F)(F)F)cc3Cl)cc2)n1`, 120 to 121 °C.
The same measure for `CC(C)N1CCN(c2ccc([N+](=O)[O-])cc2)C(=O)C1`: 87 to 90 °C; for `Cn1nc2c(-c3ccc(Cl)cc3Cl)cccc2c1CCc1ncn[nH]1`: 92 to 116 °C.
The same measure for `CCOC(=O)c1cnc2ccc(C)cc2c1O`: over 260 °C; for `C=CCNC(=O)c1cnc(SC)nc1NC(C)C`: 159 to 161 °C; for `CCCn1cc2c(C3C(=O)Nc4ccc(C#N)cc43)nc(Cl)nc2n1` (stereo unspecified): over 300 °C.
On to `CCOC(=O)CC(=O)c1cc(I)ccc1F`, for which the melting point lay in the range of 54 to 56 °C.
The same measure for `O=C1C(=Cn2ccnc2)C(c2ccccc2)Oc2ccccc21` (stereo unspecified): 129 to 131 °C; for `O=C(c1ccc(Cn2cnc3cnccc32)cc1)N1CCOCC1`: 119 to 121 °C; for `Cc1ccc(S(=O)(=O)N(c2ccc(Cl)cc2C(N)=S)C(C)C)cc1`: 189 to 191 °C.
The same measure for `CC(C)=CCn1c(N2CCC(N)C2)nc2c1c(=O)n(C)c(=O)n2C` (stereo unspecified): 119 °C; for `CCOC(=O)CC1c2cccn2S(=O)(=O)c2ccccc2N1C(=O)c1ccccc1` (stereo unspecified): 178 to 181 °C.
For the compound `COC(=O)c1cc(NC(C)=O)ccc1O`, the melting point lay within 147 to 148 °C.
`COCCN(CCOC)c1ccc(Nc2ncc3c(C)c(Br)c(=O)n(C4CCCC4)c3n2)nc1` gave a melting point of 94 to 95 °C.
As for `CC(C)(C)[N+]([O-])=Cc1ccc(S(C)(=O)=O)o1`, the figure is 138 °C.
Take `COC1(c2ccc(C=Cc3cc(F)cc(F)c3NC(=O)C(C)(C)C)cc2)CCOCC1`: the melting point was 77 to 79 °C.
As for `O=S(=O)(NC1CCCCC1)c1ccc(Cn2cnc3ccccc32)cc1`, the figure is 192 to 193 °C; as for `O=C(O)CN(CC(=O)O)c1nc(N(CC(=O)O)CC(=O)O)nc(N(CC(=O)O)CC(=O)O)n1`, 246 to 249 °C; as for `CN(C)C(=O)CC(N)=S`, 111 to 114 °C.
As for `O=C(Nc1ccc(N2CC3CC3C2)nc1)c1cc2cc(F)cnc2n1Cc1cccc(F)c1` (stereo unspecified), the figure is 222 to 224 °C; as for `NS(=O)(=O)OCCOc1cccc(OCc2ccccc2)c1`, 107 to 109 °C; as for `CN(C(=O)c1ccc(Cl)cc1)[C@@H]1CCN(C(=O)Nc2ccc(F)nc2)C[C@H]1c1ccc(Cl)c(Cl)c1`, 156 to 158 °C.
As for `CC(C)(C)OC(=O)CS(=O)(=O)c1cccc(-c2nc(=O)c3ccccc3s2)n1`, the figure is 159 to 160 °C; as for `O=C(N[C@@H](Cc1ccc(OCc2ccsc2)cc1)C(=O)O)c1cn2cc(-c3ccc(Cl)cc3)ccc2n1`, 203 °C; as for `COC(=O)Cc1cc(Oc2nn(C)c(C(F)(F)F)c2Cl)ccc1[N+](=O)[O-]`, 112 to 115 °C.
The compound `CC(=O)C1CCC2C3CCC4=CC(=O)C=CC4(C)C3C=CC12C` (stereo unspecified) registered a melting point of 167 to 169 °C.
`Oc1ccc2nc(-c3ccc(O)c(F)c3)cc(-c3ccc(C(F)(F)F)cc3)c2c1` returned a melting point of 299 to 300 °C.
As for `COc1cc(C2=NNC(=O)CC2)ccc1O`, the figure is 209 to 210 °C.
As for `O=c1[nH]c(-c2ccc(F)cc2)c(CCCl)s1`, the figure is 138 °C.
As for `COc1ccc(-c2nc(SC(F)(F)CF)[nH]c2-c2ccc(OC)cc2)cc1`, the figure is 144 to 145 °C.
In the case of `COCCc1nc2c(N)nc3ccccc3c2n1CC(C)(C)CNS(C)(=O)=O`, the melting point was in the range of 204 to 206 °C.
As for `COC(CNC1=Nc2ccccc2Nc2ccccc21)OC`, the figure is 181 to 182 °C; as for `O=C(NO)c1ccccc1Nc1c(Cl)cccc1Cl`, 171 to 173 °C.
As for `CCOP(=O)(CC1(O)CC=Cc2ccccc21)OCC` (stereo unspecified), the melting point is 120 to 121 °C.
`CC(C)(C)c1nc2ccc(Cl)nn2n1` came in with a melting point of 128 to 130 °C.
Compound `Cc1ccc(S(=O)(=O)NCCCCOc2ccc(-c3nc(-c4ccc(Cl)cc4)cs3)cc2)cc1` had a melting point of 158 to 159 °C.
The same measure for `Cn1c(=O)c(S(C)=O)c(O)c2ccccc21` (stereo unspecified): 197 to 200 °C; for `CC[C@@]1(O)C(=O)OCc2c1cc1n(c2=O)Cc2c-1nc1ccc(Cl)c3c1c2C(NC(C)=O)CN3` (stereo partly specified): 250 to 270 °C.
As for `O=C(Nc1ccc(-n2nc(C3CC3)cc2C2CC2)cc1)c1ccc2nc[nH]c2c1`, the figure is 170 to 176 °C.
Consider `O=C(NCCCCO)c1ccc2c(c1)OCO2`, for which the melting point was 95 to 98 °C.
The same measure for `CCCN1C=CSC1S(=O)(=O)N=NC(=O)Nc1nc(OC)cc(OC)n1` (stereo unspecified): 166 to 167 °C; for `N#Cc1cc([N+](=O)[O-])ccc1NC(=O)C(F)(OC(F)(F)C(F)(F)C(F)(F)F)C(F)(F)F` (stereo unspecified): 96 °C.
The same measure for `CCCCC(CC)C(=O)Nc1ccc2ccn(Cc3ccc(C(=O)O)cc3OC)c2c1` (stereo unspecified): 234 to 235 °C.
As for `OCC(O)CN1CCN(c2ncccn2)CC1` (stereo unspecified), the figure is 118 to 120 °C; as for `N#Cc1sc2ccccc2c1Cl`, 124 to 125 °C; as for `O=c1cc(SCc2ccccc2)cco1`, 105 to 106 °C.
`O=c1[nH]c(-c2cccnc2O)nc2ccccc12`: the melting point lay within 190 to 192 °C.
As to `NC(=O)CCC(=O)NCCS`, the melting point is 173 °C.
The compound `Cc1cc(OC(F)F)nc(N)n1` came in with a melting point of 136 to 137 °C.
As for `CCCC(=O)n1nc(-c2ccncc2)nc1-c1ccncc1`, the figure is 116 to 118 °C; as for `CCCc1c(OCCCOc2cccc3c2CCCC3)ccc2c1OC(CCCC(=O)O)(CCCC(=O)O)CC2=O`, 138 °C.
The same measure for `CC(=O)NC[C@H]1CN(c2ccc(N3CCC(C#N)(NNC(=O)c4cccs4)CC3)c(F)c2)C(=O)O1`: 226 to 230 °C.
As for `COc1cccc(N(C)C)c1C(=O)NC(=O)Nc1cccc(C(F)(F)F)c1`, the figure is 180 °C; as for `O=CN1C2CCC1CC(Oc1ccc(Cl)cn1)C2` (stereo unspecified), 112 to 114 °C.
The compound `COc1cc2c(cc1Br)-c1c(-c3cncs3)c3c(n1CC2)C(=O)N(C(C)(C)C)CCOC3` had a melting point of 219 to 220 °C.
As for `COC(=O)Cc1ccc(OS(=O)(=O)C(F)(F)F)c([N+](=O)[O-])c1`, the figure is 44 to 45 °C; as for `CN1CC=C(C2=C(C#N)C(c3cccc4nonc34)c3c[nH]nc3N2)CC1` (stereo unspecified), 218 °C; as for `COc1ccc(NCC(=O)N2CCC(Cc3ccccc3)CC2)cc1`, 117 to 119 °C.
As for `CCCCCc1ccc(-c2ccc(-c3ccc(C)cc3)s2)cc1F`, the figure is 115 °C; as for `Cc1[nH]c(=O)c(C(F)(F)C(F)(F)F)c2c1CC(c1ccncc1)CC2` (stereo unspecified), 265 to 300 °C.
The same measure for `CCCCCCOc1ccc(CC(C)C(=O)Oc2ccc(-c3ccc(F)cc3)cc2)cc1` (stereo unspecified): 78.4 to 79.5 °C; for `COc1ccc(C(=O)N2c3ccccc3C(N3CCCc4cc(NC(=O)OC(C)(C)C)ccc43)CC2C)cc1OC` (stereo unspecified): 192 to 193 °C; for `C#CCN(Cc1ccc2nc(C)[nH]c(=O)c2c1)c1ccc(C(=O)NC(COC(C)=O)c2cccc([N+](=O)[O-])c2)cc1` (stereo unspecified): 133 to 135 °C.
As to `Cc1ccc(-c2cc(Cl)c3ccc(C)cc3n2)cc1`, the melting point was in the range of 110 to 111 °C.
As for `CC#CC1(C2CC2)OC(=O)Nc2ccc(-c3cccc(Cl)c3)cc21` (stereo unspecified), the figure is 178 to 179 °C; as for `Cn1c2ccc(-c3nnn[nH]3)cc2c(=O)c2cc(-c3nnn[nH]3)ccc21`, over 400 °C; as for `N#Cc1cccc2c1NCC2`, 66 to 67 °C.
